As a reminder, the IC50 is the concentration at which inhibition is half-maximal. What is called AUC(0-inf) is total exposure, with the tail of the curve extrapolated. As a reminder, the AUC(0-t) is exposure summed from dosing to a finite time, without extrapolation to infinity. In general, Cmax refers to the highest concentration seen after dosing. Broadly, the MRT inf is a mean duration of stay, worked out from the concentration-time curve. A word on the Tmax: it is the time at which the peak concentration occurs. For orientation: half-life means how long it takes for the measured level to halve. For orientation: CC50 means the concentration at which the toxic effect on the cells reaches its halfway point.

In data set [1] the target is recombinant SARS-CoV-2 M^pro (Severe acute respiratory syndrome coronavirus 2 (2019-nCoV) (SARS-CoV-2), UniProt P0DTD1). The experiment in a line: Inhibition of SARS-CoV-2 M^pro enzyme activity (fluorescent substrate assay). The class given is biochemical. The settings on record: inhibition of SARS-CoV-2 M^pro enzyme activity, read-out: IC50.
The next data set in a line: in vivo. The settings on record: male, Sprague-Dawley, rat, po, 10 mg/kg.
Data set [2] can be described thus: Cytotoxic assay against Vero E6 cells (MTT, 72 h). It is filed as cell-based. The settings on record: African green monkey. The protocol:
The cytotoxicity assessment of compounds was performed against Vero E6 cells. The specific experimental procedures: Vero E6 cells were seeded into a 96-well plate at a cell density of 2×10^4 cells/well, with 100 μL/well, and then incubated overnight at 37° C. in a 5% CO2 incubator. The next day, 100 μL of drug-containing medium was added to each well. The compound was diluted in a 2-fold serial dilution with a top concentration of […], for a total of 6 gradients. Three repeated wells were set for each concentration, and negative controls and blank controls without drugs were included for each experiment. […] All experimental data were analyzed using GraphPad Prism software.

Like-named read-outs stand apart in the source and are kept apart here.

For the compound `O=C(CNC(=O)C1CC12CCC(F)(F)CC2)N[C@H](Cc1ccccc1)C(=O)C(=O)NCc1ccccn1` (stereo partly shown) [Compound 333], the IC50 in data set [1] (values in nM) stood at 13.4 ± 0.2 nM. Further, in the data set “in vivo”, the AUC(0-inf) amounted to 22400 ± 10800 ng·h/mL, the AUC(0-t) worked out at 18700 ± 9060 ng·h/mL, the Cmax was determined as 1590 ± 573 ng/mL and the MRT inf stood at 7.47 ± 0.38 h. Moreover, in the data set “in vivo”, the Tmax is 55.2 ± 57 min and the half-life was 584 ± 22.8 min.

Regarding `CC(C)(NC(=O)[C@@H]1C[C@@H]2[C@H](C1)C2(F)F)C(=O)N[C@H](Cc1ccccc1)C(=O)C(=O)NCc1ccccn1` [Compound 174], the IC50 in data set [1] (values in nM) stood at 13.2 ± 1 nM. Further, in data set [2], the CC50 at 72 h was above 500 µM. Regarding `O=C(CCC1CCC(F)(F)CC1)NCC(=O)N[C@H](Cc1ccccc1)C(=O)C(=O)NCc1ccccn1` [Compound 153], in data set [1] (values in nM), the IC50 was found to be 12 ± 0.6 nM. In “in vivo”, the AUC(0-inf) stood at 26000 ± 265 ng·h/mL, the AUC(0-t) was 23500 ± 676 ng·h/mL, the peak level (Cmax) was 1980 ± 97.7 ng/mL and the MRT inf amounted to 7.08 ± 0.25 h. In “in vivo”, the Tmax was found to be 100 ± 34.8 min and the half-life was 428 ± 27.6 min. `CC(C)(NC(=O)C1CCC(F)(F)CC1)C(=O)N[C@H](Cc1ccccc1)C(=O)C(=O)NCc1ccccn1` [Compound 172]: the half-maximal inhibitory concentration (IC50) in data set [1] (values in nM) is 14.9 ± 0.7 nM. In addition, in data set [2], the CC50 at 72 h came to 341 µM.

Consider `CC(C)(NC(=O)c1cc(OC(F)(F)F)ccc1F)C(=O)N[C@H](Cc1ccccc1)C(=O)C(=O)NCc1ccccn1` [Compound 177], for which the half-inhibitory concentration (IC50) in data set [1] (values in nM) came out at 10.5 ± 0.2 nM. In data set [2], this compound returned a CC50 at 72 h of 157 µM. Taken in the same sequence, the figures for `C[C@@H](NC(=O)C1CCC(F)(F)CC1)C(=O)N[C@H](Cc1ccccc1)C(=O)C(=O)NCc1ccccn1` [Compound 317] were 16 ± 0.3 nM and above 500 µM. For the compound `O=C(NCc1ccccn1)C(=O)[C@@H](Cc1ccccc1)NC(=O)[C@H]1COCCN1C(=O)[C@H](NC(=O)c1cnccn1)C1CCCCC1` [Compound 290], the IC50 in data set [1] (values in nM) turned out to be 11.3 ± 0.2 nM. For the same compound, in the data set “in vivo”, the AUC(0-inf) was determined as 3120 ± 894 ng·h/mL, the AUC(0-t) worked out at 3110 ± 894 ng·h/mL, the peak level (Cmax) was 722 ± 235 ng/mL and the MRT inf was 4.16 ± 0.3 h. In the data set “in vivo”, the Tmax is 30 min and the half-life is 160 ± 6.6 min. For `CC(C)(C(=O)NCC1CCC(F)(F)CC1)C(=O)N[C@H](Cc1ccccc1)C(=O)C(=O)NCc1ccccn1` [Compound 324, (R)—N^1-((4,4-difluorocyclohexyl)methyl)-N^3-(3,4-dioxo-1-phenyl-4-((pyridin-2-ylmethyl)amino)butan-2-yl)-2,2-dimethylmalonamide], the concentration for half-maximal inhibition (IC50) in data set [1] (values in nM) worked out at 9.6 ± 0.1 nM. This compound registered a CC50 at 72 h in data set [2] above 500 µM. For `C[C@@H](OCc1cccc(OC(F)(F)F)c1)C(=O)N[C@H](Cc1ccccc1)C(=O)C(=O)NCc1ccc(Cl)cn1` [Compound 47], the IC50 in data set [1] (values in nM) came to 14.1 ± 0.1 nM.

Take `C[C@@H](NC(=O)CC1CCC(F)(F)CC1)C(=O)N[C@H](Cc1ccccc1)C(=O)C(=O)NCc1cscn1` [Compound 419]: the half-inhibitory concentration (IC50) in data set [1] (values in nM) was 9.8 ± 0.1 nM. Same read-out and setting: for `N#Cc1ccc(C(=O)NCC(=O)N[C@H](Cc2ccccc2)C(=O)C(=O)NCc2ccccn2)cc1F` [Compound 443] the value was 168 ± 1.9 nM. In the case of `CC(C)(C(=O)N[C@H](Cc1ccccc1)C(=O)C(=O)NCc1ccccn1)C(=O)N1CCC(C(F)(F)F)CC1` [Compound 325], the IC50 in data set [1] (values in nM) stood at 177 ± 2.5 nM. The same measure, in the same setting: next, `COc1ccc(COC(C)(C)C(=O)N[C@H](Cc2ccccc2)C(=O)C(=O)NCc2ccccn2)cc1F` [Compound 21]: 26.9 ± 3.9 nM; `C[C@@H](NC(=O)C1CCC(F)(F)CC1)C(=O)N[C@H](Cc1ccccc1)C(=O)C(=O)NCc1ccncn1` [Compound 338]: 20 ± 0.8 nM. On the same count and under the same terms, for `O=C(CNC(=O)N1CCC(F)(F)CC1)N[C@H](Cc1ccccc1)C(=O)C(=O)NCc1ccccn1` [Compound 304] the value was 53.8 ± 5.8 nM; for `CC(C)c1ccc(OCC(=O)N[C@H](C)C(=O)N[C@H](Cc2ccccc2)C(=O)C(=O)NCc2ccccn2)cc1` [Compound 68], 12.4 ± 1.1 nM.

For `C[C@@H](NC(=O)c1cc(Cl)cc(OC(F)(F)F)c1)C(=O)N[C@H](Cc1ccccc1)C(=O)C(=O)NCc1nccs1` [Compound 383], the IC50 in data set [1] (values in nM) came to 21.5 ± 0.8 nM. As to `Cc1ccc(CO[C@H](C)C(=O)N[C@H](Cc2ccccc2)C(=O)C(=O)NCc2ccccn2)cc1` [Compound 14], in data set [1] (values in nM), the IC50 is 19.3 ± 2.8 nM. In the case of `O=C(NCc1ccccn1)C(=O)[C@@H](Cc1ccccc1)NC(=O)C1(NC(=O)C2CC(F)(F)C2)CCC1` [Compound 204], the IC50 in data set [1] (values in nM) was 36.7 ± 0.9 nM. Turning to `O=C(NCc1nccs1)C(=O)[C@@H](Cc1ccccc1)NC(=O)C1(NC(=O)C2CCCC(F)(F)C2)CC(F)(F)C1` (stereo partly shown) [Compound 545], in data set [1] (values in nM), the IC50 came out at 26.9 ± 0.2 nM.

In the case of `O=C(Cn1cc(-c2cccc(OC(F)(F)F)c2)cn1)N[C@H](Cc1ccccc1)C(=O)C(=O)NCc1nccs1` [Compound 494], the IC50 in data set [1] (values in nM) was determined as 82.5 ± 3.7 nM. For the compound `CC(C)(C(=O)N[C@H](Cc1ccccc1)C(=O)C(=O)NCc1ccccn1)n1cc(-c2ccccc2)cn1` [Compound 326, (R)-3-(2-methyl-2-(4-phenyl-1H-pyrazol-1-yl)propionamido)-2-oxo-4-phenyl-N-(pyridin-2-ylmethyl)butyramide], the IC50 in data set [1] (values in nM) stood at 20.7 ± 0.5 nM. The same measure, in the same setting: next, `O=C(CNC(=O)C1CCC(F)(F)CC1)N[C@H](Cc1ccc(Cl)cc1Cl)C(=O)C(=O)NCc1ccccn1` [Compound 451]: 34.4 ± 1.8 nM; `O=C(Cc1noc(-c2cc(F)ccc2F)n1)N[C@H](Cc1ccccc1)C(=O)C(=O)NCc1nccs1` [Compound 520]: 161.3 ± 1.2 nM. As to `O=C(NCc1ccccn1)C(=O)[C@@H](Cc1ccccc1)NC(=O)C1CCN(Cc2ccccc2)C1` (stereo partly shown) [Compound 279], the IC50 in data set [1] (values in nM) was 272 ± 6.2 nM. As for `O=C(NCc1nccs1)C(=O)[C@@H](Cc1ccccc1)NC(=O)[C@H]1COCCN1C(=O)C1CCC(F)(F)CC1` [Compound 407], in data set [1] (values in nM), the concentration for half-maximal inhibition (IC50) stood at 21.4 ± 0.3 nM. Same read-out and setting: for `CC(C)(OCc1cc(F)cc(Cl)c1)C(=O)N[C@H](Cc1ccccc1)C(=O)C(=O)NCc1ccccn1` [Compound 19] the value was 45.2 ± 1.2 nM. Consider `C[C@@H](OCc1ccccc1)C(=O)N[C@H](Cc1ccccc1)C(=O)C(=O)NCc1ncccc1Cl` [Compound 34], for which, in data set [1] (values given in μM), the IC50 was above 5000 nM. As for `C[C@@H](NC(=O)c1cc(F)cc(Cl)c1)C(=O)N[C@H](Cc1ccccc1)C(=O)C(=O)NCc1ccccn1` [Compound 101], in data set [1] (values in nM), the IC50 was found to be 21.6 ± 0.8 nM. On the same count and under the same terms, for `C[C@@H](OCc1cc(F)cc(Cl)c1)C(=O)N[C@H](Cc1ccccc1)C(=O)C(=O)NCc1ccccn1` [Compound 15] the value was 9.8 ± 0.1 nM. Take `C[C@@H](NC(=O)c1ccccn1)C(=O)N[C@H](Cc1ccccc1)C(=O)C(=O)NCc1ccccn1` [Compound 141]: the IC50 in data set [1] (values given in μM) is 1160 ± 240 nM. As for `O=C(NCc1ccccn1)C(=O)[C@@H](Cc1ccccc1)NC(=O)[C@H]1CC(F)CN1C(=O)C1CCC(F)(F)CC1` (stereo partly shown) [Compound 278], in data set [1] (values in nM), the IC50 was 33.7 ± 0.5 nM. On to `COc1ccc(OC(F)(F)F)cc1C(=O)NC(C)(C)C(=O)N[C@H](Cc1ccccc1)C(=O)C(=O)NCc1ccccn1` [Compound 183], for which the IC50 in data set [1] (values in nM) stood at 21.9 ± 0.3 nM.

On to `N#Cc1cccc(-c2cnn(CC(=O)N[C@H](Cc3ccccc3)C(=O)C(=O)NCc3nccs3)c2)c1` [Compound 496], for which, in data set [1] (values in nM), the IC50 is 77 ± 4.1 nM. The same measure, in the same setting: next, `C[C@H](C(=O)N[C@H](Cc1ccccc1)C(=O)C(=O)NCc1ccccn1)N(C)C(=O)c1ccc(F)cc1` [Compound 149]: 36.4 ± 7.4 nM; `O=C(NCc1nccs1)C(=O)[C@@H](Cc1ccccc1)NC(=O)[C@H]1CC(F)(F)CN1C(=O)CC1CC1(F)F` (stereo partly shown) [Compound 405]: 104 ± 1.7 nM; `O=C(CN1C(=O)CN(c2ccc(F)cc2)C1=O)N[C@H](Cc1ccccc1)C(=O)C(=O)NCc1nccs1` [Compound 525]: 84.5 ± 1.8 nM.

Take `COC[C@@H](NC(=O)CC1CC1(F)F)C(=O)N[C@H](Cc1ccccc1)C(=O)C(=O)NCc1nccs1` (stereo partly shown) [Compound 396]: in data set [1] (values in nM), the IC50 was found to be 48.8 ± 0.4 nM. On the same count and under the same terms, next, `O=C(Cc1csc(C2CCC(F)(F)CC2)n1)N[C@H](Cc1ccccc1)C(=O)C(=O)NCc1nccs1` [Compound 511, (R)-3-(2-(2-(4,4-difluorocyclohexyl)thiazole-4-yl)acetamido)-2-oxo-4-phenyl-N-(thiazole-2-ylmethyl)butyramide]: 30.4 ± 2.1 nM; `O=C(CC1CC(F)(F)C1)NC1(C(=O)N[C@H](Cc2ccccc2)C(=O)C(=O)NCc2nccs2)CC(F)(F)C1` [Compound 547]: 25.1 ± 1 nM. In the case of `O=C(NCc1ccccn1)C(=O)[C@@H](Cc1ccccc1)NC(=O)[C@H]1COCCN1C(=O)C1CCC(F)(F)CC1` [Compound 288], in data set [1] (values in nM), the IC50 is 14.6 ± 0.4 nM. In the data set “in vivo”, this compound had an AUC(0-inf) of 3500 ± 1250 ng·h/mL, an AUC(0-t) of 3490 ± 1250 ng·h/mL, a Cmax of 1140 ± 207 ng/mL and an MRT inf of 3.59 ± 0.11 h. In the data set “in vivo”, the time of peak concentration (Tmax) was found to be 45 ± 25.8 min and the half-life was 182 ± 21.6 min. For the compound `C[C@@H](NC(=O)c1ccccc1)C(=O)N[C@H](Cc1ccccc1)C(=O)C(=O)NCc1ccccn1` [Compound 137, N—((R)-1-(((R)-3,4-dioxo-1-phenyl-4-((pyridin-2-ylmethyl)amino)butan-2-yl)amino)-1-oxopropan-2-yl)benzamide], the IC50 in data set [1] (values in nM) was determined as 22.1 ± 7.7 nM. On to `C#CCC(NC(=O)C1CCC(F)(F)CC1)C(=O)N[C@H](Cc1ccccc1)C(=O)C(=O)NCc1ccccn1` (stereo partly shown) [Compound 231], for which, in data set [1] (values in nM), the IC50 turned out to be 35.4 ± 0.2 nM.

As for `COC[C@@H](NC(=O)C1CCCC(F)(F)C1)C(=O)N[C@H](Cc1cccc(Cl)c1)C(=O)C(=O)NCc1nccs1` (stereo partly shown) [Compound 566], in data set [1] (values in nM), the IC50 was 33.2 ± 2.3 nM.

For the origin of these results see patent US20250064789A1, “KETOAMIDE DERIVATIVES AND PHARMACEUTICAL USES THEREOF” (priority 2022, published 2025).
